Tests used:
Type in all cases: cell-based
[1] = biological target: AXL (phospho-AXL, Gas6-stimulated A-172 glioblastoma cells) (Homo sapiens (Human), UniProt P30530); experiment: AXL autophosphorylation ELISA in A-172 cells (Example E); conditions: cellular activity; AXL autophosphorylation ELISA in A-172 cells; read-out: Axl IC50
Procedure, shortened: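 Phospho-AXL was measured by ELISA in lysates of Gas6-stimulated A-172 cells, starved 24 h in serum-free medium and exposed 1 h to an 8-point compound dilution at 0.3% DMSO.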

[2] = biological target: Met (phospho-Met, HGF-stimulated PC-3 prostate cancer cells) (Homo sapiens (Human), UniProt P08581); experiment: Met autophosphorylation ELISA in PC-3 cells (Example F); conditions: cellular activity; Met autophosphorylation ELISA in PC-3 cells; read-out: c-Met IC50
Sequence of Met (phospho-Met, HGF-stimulated PC-3 prostate cancer cells) (P08581 25-1390): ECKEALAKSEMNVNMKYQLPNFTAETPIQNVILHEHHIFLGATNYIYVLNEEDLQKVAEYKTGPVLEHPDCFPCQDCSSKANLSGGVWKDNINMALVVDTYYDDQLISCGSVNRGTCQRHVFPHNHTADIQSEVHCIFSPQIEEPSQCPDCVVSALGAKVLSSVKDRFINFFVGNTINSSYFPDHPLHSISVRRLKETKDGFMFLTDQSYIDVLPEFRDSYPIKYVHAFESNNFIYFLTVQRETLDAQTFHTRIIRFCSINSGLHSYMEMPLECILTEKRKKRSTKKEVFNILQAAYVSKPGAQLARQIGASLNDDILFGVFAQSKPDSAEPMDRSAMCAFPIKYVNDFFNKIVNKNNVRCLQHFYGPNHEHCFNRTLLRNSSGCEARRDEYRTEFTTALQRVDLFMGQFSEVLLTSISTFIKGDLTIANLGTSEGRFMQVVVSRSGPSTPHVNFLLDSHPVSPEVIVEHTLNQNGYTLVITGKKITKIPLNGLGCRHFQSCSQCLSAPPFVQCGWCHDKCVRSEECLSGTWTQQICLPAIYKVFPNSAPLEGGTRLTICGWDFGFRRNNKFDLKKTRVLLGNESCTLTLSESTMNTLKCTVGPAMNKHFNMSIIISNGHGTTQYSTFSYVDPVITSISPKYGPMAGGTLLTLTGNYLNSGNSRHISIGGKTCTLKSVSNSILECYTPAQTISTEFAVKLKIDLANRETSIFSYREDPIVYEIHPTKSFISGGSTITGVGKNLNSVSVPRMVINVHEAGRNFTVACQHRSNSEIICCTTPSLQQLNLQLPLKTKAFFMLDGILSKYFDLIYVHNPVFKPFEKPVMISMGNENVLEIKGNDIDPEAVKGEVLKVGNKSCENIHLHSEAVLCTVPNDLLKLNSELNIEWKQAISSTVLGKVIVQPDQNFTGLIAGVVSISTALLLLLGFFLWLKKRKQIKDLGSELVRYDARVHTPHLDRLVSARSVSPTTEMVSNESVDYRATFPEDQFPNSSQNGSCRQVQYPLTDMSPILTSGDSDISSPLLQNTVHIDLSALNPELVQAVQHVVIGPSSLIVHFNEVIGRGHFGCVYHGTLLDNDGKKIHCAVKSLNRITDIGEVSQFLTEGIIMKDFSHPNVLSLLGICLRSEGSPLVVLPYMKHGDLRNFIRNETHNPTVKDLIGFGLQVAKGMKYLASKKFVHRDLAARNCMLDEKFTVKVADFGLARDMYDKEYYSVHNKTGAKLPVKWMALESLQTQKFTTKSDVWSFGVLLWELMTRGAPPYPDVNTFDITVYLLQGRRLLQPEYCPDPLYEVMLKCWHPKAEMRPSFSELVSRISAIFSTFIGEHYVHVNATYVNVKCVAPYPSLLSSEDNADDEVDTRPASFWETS
Procedure, shortened: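 Sandwich ELISA for phospho-Met (panTyr) in PC-3 lysates. Cells starved 3 h serum-free, compound 1 h (8-pt curve, 0.3% DMSO), HGF 100 ng/mL 10 min. 100% = HGF + DMSO; 0% = HGF + reference inhibitor. IC50 by 4-parameter fit.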

[3] = biological target: KDR (phospho-KDR, VEGF165-stimulated HUVEC cells) (Homo sapiens (Human), UniProt P35968); experiment: KDR autophosphorylation ELISA in HUVEC cells (Example G); conditions: cellular activity; KDR autophosphorylation ELISA in HUVEC cells
Sequence of KDR (phospho-KDR, VEGF165-stimulated HUVEC cells) (P35968 20-1356): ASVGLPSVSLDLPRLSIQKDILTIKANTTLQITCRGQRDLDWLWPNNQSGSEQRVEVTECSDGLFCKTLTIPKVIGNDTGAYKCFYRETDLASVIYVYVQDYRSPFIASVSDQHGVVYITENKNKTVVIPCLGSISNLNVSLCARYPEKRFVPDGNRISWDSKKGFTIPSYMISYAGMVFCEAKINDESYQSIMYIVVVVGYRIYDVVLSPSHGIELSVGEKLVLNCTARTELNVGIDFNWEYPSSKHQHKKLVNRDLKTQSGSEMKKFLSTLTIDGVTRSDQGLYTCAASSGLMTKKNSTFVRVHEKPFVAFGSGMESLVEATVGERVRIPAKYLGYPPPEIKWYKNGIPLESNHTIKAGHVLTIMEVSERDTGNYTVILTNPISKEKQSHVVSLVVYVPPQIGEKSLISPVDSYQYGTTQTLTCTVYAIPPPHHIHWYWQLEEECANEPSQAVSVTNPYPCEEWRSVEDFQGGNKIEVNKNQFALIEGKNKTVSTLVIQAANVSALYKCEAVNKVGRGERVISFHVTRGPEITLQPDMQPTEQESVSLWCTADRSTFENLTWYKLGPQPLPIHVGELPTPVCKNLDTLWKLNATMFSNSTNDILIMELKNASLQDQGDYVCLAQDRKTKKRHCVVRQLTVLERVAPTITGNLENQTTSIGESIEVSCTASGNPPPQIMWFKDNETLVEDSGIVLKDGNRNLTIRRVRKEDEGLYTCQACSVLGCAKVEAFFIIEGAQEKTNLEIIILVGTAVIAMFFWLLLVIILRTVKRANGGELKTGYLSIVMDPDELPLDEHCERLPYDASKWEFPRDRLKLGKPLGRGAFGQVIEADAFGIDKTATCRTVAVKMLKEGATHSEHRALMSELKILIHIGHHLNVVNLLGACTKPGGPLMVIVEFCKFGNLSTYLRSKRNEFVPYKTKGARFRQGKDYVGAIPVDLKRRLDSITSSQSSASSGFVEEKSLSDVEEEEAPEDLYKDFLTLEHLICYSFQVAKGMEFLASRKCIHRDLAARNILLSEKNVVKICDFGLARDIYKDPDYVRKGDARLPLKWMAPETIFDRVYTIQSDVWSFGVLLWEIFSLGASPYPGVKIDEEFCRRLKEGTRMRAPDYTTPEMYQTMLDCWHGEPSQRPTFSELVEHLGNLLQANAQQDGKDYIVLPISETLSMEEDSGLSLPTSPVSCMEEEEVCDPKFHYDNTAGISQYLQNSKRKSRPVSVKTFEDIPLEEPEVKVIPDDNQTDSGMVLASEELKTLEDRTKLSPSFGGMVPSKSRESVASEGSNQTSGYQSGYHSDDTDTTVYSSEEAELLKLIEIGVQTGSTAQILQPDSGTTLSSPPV
Procedure, shortened: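 First, endothelial cells were cultured a day, then kept without serum for another day. Next came 1 h with serially diluted compound, a brief 5 min VEGF165 stimulus (100 ng/mL), rapid lysis, and ELISA detection of receptor phosphorylation relative to stimulated and non-stimulated controls.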

[4] = biological target: Mer (phospho-Mer, MERTK-transfected 293A cells) (Homo sapiens (Human), UniProt Q12866); experiment: Mer autophosphorylation ELISA in transient transfected 293A cells (Example H); conditions: cellular activity; Mer autophosphorylation ELISA in transient transfected 293A cells
Sequence of Mer (phospho-Mer, MERTK-transfected 293A cells) (Q12866 21-999): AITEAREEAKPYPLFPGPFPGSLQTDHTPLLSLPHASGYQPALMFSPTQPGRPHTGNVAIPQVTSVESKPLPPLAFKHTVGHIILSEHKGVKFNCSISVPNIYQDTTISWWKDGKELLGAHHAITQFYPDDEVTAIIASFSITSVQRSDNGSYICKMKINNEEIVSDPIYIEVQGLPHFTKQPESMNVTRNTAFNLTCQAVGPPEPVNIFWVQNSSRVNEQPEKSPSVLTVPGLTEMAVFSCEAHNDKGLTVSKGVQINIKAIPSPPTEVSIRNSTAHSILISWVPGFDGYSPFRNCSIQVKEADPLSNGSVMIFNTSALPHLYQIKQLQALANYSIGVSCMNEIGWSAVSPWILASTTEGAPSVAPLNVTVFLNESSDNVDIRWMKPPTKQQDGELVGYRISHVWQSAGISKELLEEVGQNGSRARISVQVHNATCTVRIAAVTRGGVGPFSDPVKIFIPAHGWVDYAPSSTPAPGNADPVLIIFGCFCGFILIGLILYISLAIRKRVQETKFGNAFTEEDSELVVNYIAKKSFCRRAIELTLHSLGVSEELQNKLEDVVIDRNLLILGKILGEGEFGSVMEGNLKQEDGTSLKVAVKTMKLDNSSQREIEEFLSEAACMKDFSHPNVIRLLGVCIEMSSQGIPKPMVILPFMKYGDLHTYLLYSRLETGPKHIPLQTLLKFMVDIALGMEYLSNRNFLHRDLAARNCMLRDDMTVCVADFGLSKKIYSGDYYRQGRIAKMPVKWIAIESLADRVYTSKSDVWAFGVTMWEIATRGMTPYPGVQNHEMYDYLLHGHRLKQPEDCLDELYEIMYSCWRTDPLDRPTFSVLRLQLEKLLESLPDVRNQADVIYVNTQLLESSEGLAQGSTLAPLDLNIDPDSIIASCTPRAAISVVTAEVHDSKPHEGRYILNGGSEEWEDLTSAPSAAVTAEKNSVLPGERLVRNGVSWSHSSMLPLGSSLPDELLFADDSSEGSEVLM
Procedure, shortened: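 IC50 from 4-parameter logistic fit of phospho-Mer levels, quantified by ELISA against a phospho-Mer standard in lysates of MERTK-transfected 293A cells. Cells exposed 1 h to 8-point serial dilutions, serum-free, 0.3% DMSO; controls: DMSO (100%) and reference inhibitor (0%).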

Sequence of AXL (phospho-AXL, Gas6-stimulated A-172 glioblastoma cells) (P30530 26-894): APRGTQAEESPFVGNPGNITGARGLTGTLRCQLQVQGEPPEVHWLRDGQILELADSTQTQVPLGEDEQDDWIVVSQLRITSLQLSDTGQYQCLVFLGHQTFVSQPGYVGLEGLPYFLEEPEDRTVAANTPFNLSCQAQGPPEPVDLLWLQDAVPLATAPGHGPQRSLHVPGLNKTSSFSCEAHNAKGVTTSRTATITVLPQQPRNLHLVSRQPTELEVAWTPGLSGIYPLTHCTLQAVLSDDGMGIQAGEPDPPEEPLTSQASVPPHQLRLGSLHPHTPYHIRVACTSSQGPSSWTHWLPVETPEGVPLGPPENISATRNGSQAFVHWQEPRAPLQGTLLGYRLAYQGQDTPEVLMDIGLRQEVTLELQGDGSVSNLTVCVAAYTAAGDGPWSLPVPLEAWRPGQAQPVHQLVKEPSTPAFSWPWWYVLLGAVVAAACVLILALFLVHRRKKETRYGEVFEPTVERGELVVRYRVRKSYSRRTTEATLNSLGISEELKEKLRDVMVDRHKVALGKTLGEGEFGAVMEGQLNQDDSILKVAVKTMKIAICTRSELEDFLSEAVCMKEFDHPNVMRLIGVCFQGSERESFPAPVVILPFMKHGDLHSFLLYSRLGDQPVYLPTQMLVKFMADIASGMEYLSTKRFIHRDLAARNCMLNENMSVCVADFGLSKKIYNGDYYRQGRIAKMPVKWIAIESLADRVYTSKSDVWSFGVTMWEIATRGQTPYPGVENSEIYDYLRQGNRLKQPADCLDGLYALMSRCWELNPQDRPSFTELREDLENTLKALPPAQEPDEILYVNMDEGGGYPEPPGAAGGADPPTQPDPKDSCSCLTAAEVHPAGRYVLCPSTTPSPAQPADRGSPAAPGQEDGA

Row | SMILES | IC50 [1] | IC50 [2] | IC50 [3] | IC50 [4]
1 | C=Cc1c(C)c(C(=O)Nc2ccc(Oc3ccnc4cc(OCCOC)c(OC)nc34)cc2)c(=O)n(-c2ccc(F)cc2)c1C [Compound 741, 5-ethenyl-1-(4-fluorophenyl)-N-[4-[[6-methoxy-7-(2-methoxyethoxy)-1,5-naphthyridin-4-yl]oxy]phenyl]-4,6-dimethyl-2-oxopyridine-3-carboxamide] | < 0.1 µM | < 0.1 µM | 0.1 to 0.3 µM | < 0.1 µM
2 | C=Cc1c(C)c(C(=O)Nc2ccc(Oc3ccnc4cc(OCCOC)cnc34)c(F)c2)c(=O)n(-c2ccc(F)cc2)c1C [Compound 742, 5-ethenyl-N-[3-fluoro-4-[[7-(2-methoxyethoxy)-1,5-naphthyridin-4-yl]oxy]phenyl]-1-(4-fluorophenyl)-4,6-dimethyl-2-oxopyridine-3-carboxamide] | < 0.1 µM | < 0.1 µM | > 0.3 µM | < 0.1 µM
3 | COc1cc(Oc2ccnc3cc(OC)c(OC)nc23)c(F)cc1NC(=O)c1cn(C)c(C)c(-c2ccc(F)cc2)c1=O [Compound 743, N-[4-[(6,7-dimethoxy-1,5-naphthyridin-4-yl)oxy]-5-fluoro-2-methoxyphenyl]-5-(4-fluorophenyl)-1,6-dimethyl-4-oxopyridine-3-carboxamide] | < 0.1 µM | < 0.1 µM | > 0.3 µM | < 0.1 µM
4 | COc1cc2nccc(Oc3cc(C)c(NC(=O)c4cn(C)c(C)c(-c5ccc(F)cc5)c4=O)cc3F)c2nc1OC [Compound 744, N-[4-[(6,7-dimethoxy-1,5-naphthyridin-4-yl)oxy]-5-fluoro-2-methylphenyl]-5-(4-fluorophenyl)-1,6-dimethyl-4-oxopyridine-3-carboxamide] | < 0.1 µM | < 0.1 µM | > 0.3 µM | < 0.1 µM
5 | COc1cc(NC(=O)c2cn(C)c(C)c(-c3ccc(F)cc3)c2=O)c(F)cc1Oc1ccnc2cc(OC)c(OC)nc12 [Compound 745, N-[4-[(6,7-dimethoxy-1,5-naphthyridin-4-yl)oxy]-2-fluoro-5-methoxyphenyl]-5-(4-fluorophenyl)-1,6-dimethyl-4-oxopyridine-3-carboxamide] | < 0.1 µM | < 0.1 µM | > 0.3 µM | < 0.1 µM
6 | COc1cc2nccc(Oc3cc(F)c(NC(=O)c4cn(C)c(C)c(-c5ccc(F)cc5)c4=O)cc3C)c2nc1OC [Compound 746, N-[4-[(6,7-dimethoxy-1,5-naphthyridin-4-yl)oxy]-2-fluoro-5-methylphenyl]-5-(4-fluorophenyl)-1,6-dimethyl-4-oxopyridine-3-carboxamide] | < 0.1 µM | < 0.1 µM | > 0.3 µM | < 0.1 µM
7 | COc1cc2nccc(Oc3ccc(NC(=O)c4c(C)c(Br)c(C)n(-c5ccccc5)c4=O)cc3F)c2nc1OC [Compound 747, 5-bromo-N-[4-[(6,7-dimethoxy-1,5-naphthyridin-4-yl)oxy]-3-fluorophenyl]-4,6-dimethyl-2-oxo-1-phenylpyridine-3-carboxamide] | < 0.1 µM | < 0.1 µM | 0.1 to 0.3 µM | < 0.1 µM
8 | Cn1cc(C(=O)Nc2ccc(Oc3ccnc4cccnc34)c(F)c2)c(=O)c(-c2ccc(F)cc2)c1CO [Compound 748, N-[3-fluoro-4-(1,5-naphthyridin-4-yloxy)phenyl]-5-(4-fluorophenyl)-6-(hydroxymethyl)-1-methyl-4-oxopyridine-3-carboxamide] | < 0.1 µM | < 0.1 µM | > 0.3 µM | < 0.1 µM
9 | Cc1ccc2nccc(Oc3ccc(NC(=O)c4cn(C)c(CO)c(-c5ccc(F)cc5)c4=O)cc3F)c2n1 [Compound 749, N-[3-fluoro-4-[(6-methyl-1,5-naphthyridin-4-yl)oxy]phenyl]-5-(4-fluorophenyl)-6-(hydroxymethyl)-1-methyl-4-oxopyridine-3-carboxamide] | < 0.1 µM | < 0.1 µM | > 0.3 µM | < 0.1 µM
